Assay results from patent publication US8952024B2, “Herbicidal pyrimidone derivatives” (E I du Pont de Nemours and Company, priority 2009, dated 2015).

What was measured:
Type in all cases: in vivo
[1] = system: winter barley (Hordeum vulgare); test: Test B postemergence plant response; conditions: Postemergence
Outline: (§1)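 Plants grown in peat/vermiculite medium were sprayed postemergence at 2–18 cm height (1- to 4-leaf stage). After 13–15 days in the greenhouse, response was rated visually against untreated controls on a 0–100 scale (0 no effect, 100 complete control).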

[2] = system: windgrass (Apera spica-venti); test: Test B postemergence plant response; conditions: Postemergence
Outline: as §1

[3] = system: chickweed (Stellaria media); test: Test B postemergence plant response; conditions: Postemergence
Outline: as §1

[4] = system: canarygrass (Phalaris minor); test: Test B postemergence plant response; conditions: Postemergence
Outline: as §1

[5] = system: Surinam grass (Brachiaria decumbens); test: Test B pre-/postemergence plant response
Outline: (§2)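 Test compounds, formulated in a non-phytotoxic solvent mixture with surfactant, are applied to the soil surface (loam and sand blend) right after seeding, or sprayed over plants at the 1- to 4-leaf stage grown in peat moss/vermiculite medium. After 13 to 15 days under glasshouse conditions, each species is scored visually from 0 (no effect) to 100 (complete control) against controls.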

corn (Zea mays) = test: Test B pre-/postemergence plant response
Outline: as §2

[6] = system: lambsquarters (Chenopodium album); test: Test B pre-/postemergence plant response
Outline: as §2

[7] = system: large crabgrass (Digitaria sanguinalis); test: Test B pre-/postemergence plant response
Outline: as §2

soybean (Glycine max) = test: Test B pre-/postemergence plant response
Outline: as §2

[8] = system: bermudagrass (Cynodon dactylon); test: Test B pre-/postemergence plant response
Outline: as §2

[9] = 31 g ai/ha, 0 to 100 scale (0 no effect, 100 complete control)
[10] = 125 g ai/ha, scale 0 (no effect) to 100 (complete control), 13 to 15 days
[11] = 250 g ai/ha, scale 0 to 100 (0 no effect, 100 complete control), 13 to 15 days
[12] = 62 g ai/ha, scale 0 to 100 (0 no effect, 100 complete control)
[13] = Postemergence, 31 g ai/ha, 0 to 100 scale (0 no effect, 100 complete control)
[14] = Postemergence, 125 g ai/ha, scale 0 (no effect) to 100 (complete control), 13 to 15 days
[15] = Postemergence, 250 g ai/ha, scale 0 to 100 (0 no effect, 100 complete control), 13 to 15 days
[16] = Postemergence, 62 g ai/ha, scale 0 to 100 (0 no effect, 100 complete control)
[17] = Preemergence, 31 g ai/ha, scale 0 to 100 (0 no effect, 100 complete control)
[18] = Preemergence, 62 g ai/ha, scale 0 to 100, 0 no effect, 100 complete control
[19] = Preemergence, 125 g ai/ha, scale 0 to 100, 0 no effect, 100 complete control
[20] = Preemergence, 250 g ai/ha, 0 to 100 scale

COCCCn1c(-c2cc(F)cc(F)c2)ncc(C(=O)C2=C(O)C3CCC(C3)C2=O)c1=O (stereo not shown) [Compound 244]
70: Plant response rating, Windgrass [2, 12] | Plant response rating, Soybean (soybean (Glycine max); [17])
75: Plant response rating, Surinam Grass [5, 17]
5: Plant response rating, Corn (corn (Zea mays); [17])
90: Plant response rating, Barley [1, 10] | Plant response rating, Surinam Grass [5, 13] | Plant response rating, Corn (corn (Zea mays); [16]) | Plant response rating, Soybean (soybean (Glycine max); [19])
80: Plant response rating, Windgrass [2, 10] | Plant response rating, Chickweed [3, 9] | Plant response rating, Canarygrass [4, 9] | Plant response rating, Crabgrass, Large [7, 13] | Plant response rating, Soybean (soybean (Glycine max); [18]) | Plant response rating, Bermudagrass [8, 13]
65: Plant response rating, Barley [1, 12]
100: Plant response rating, Chickweed [3, 11] | Plant response rating, Canarygrass [4, 11] | Plant response rating, Surinam Grass [5, 14] | Plant response rating, Surinam Grass [5, 15] | Plant response rating, Surinam Grass [5, 18] | Plant response rating, Surinam Grass [5, 19] | Surinam Grass plant response rating [5, 20] | Plant response rating, Corn (corn (Zea mays); [15]) | Plant response rating, Lambsquarters [6, 13] | Plant response rating, Lambsquarters [6, 14] | Plant response rating, Lambsquarters [6, 15] | Plant response rating, Lambsquarters [6, 16] | Plant response rating, Lambsquarters [6, 17] | Plant response rating, Lambsquarters [6, 18] | Plant response rating, Lambsquarters [6, 19] | Lambsquarters plant response rating [6, 20] | Plant response rating, Crabgrass, Large [7, 14] | Plant response rating, Crabgrass, Large [7, 15] | Plant response rating, Crabgrass, Large [7, 16] | Plant response rating, Crabgrass, Large [7, 18] | Plant response rating, Crabgrass, Large [7, 19] | Crabgrass, Large plant response rating [7, 20] | Plant response rating, Soybean (soybean (Glycine max); [14]) | Plant response rating, Soybean (soybean (Glycine max); [15]) | Plant response rating, Soybean (soybean (Glycine max); [16]) | Plant response rating, Bermudagrass [8, 14] | Plant response rating, Bermudagrass [8, 15] | Plant response rating, Bermudagrass [8, 16] | Plant response rating, Bermudagrass [8, 17] | Plant response rating, Bermudagrass [8, 18] | Plant response rating, Bermudagrass [8, 19] | Bermudagrass plant response rating ([8]; Preemergence, 250 g ai/ha, 0 to 100 scale, 0 no effect, 100 complete control)
25: Plant response rating, Corn (corn (Zea mays); [18])
98: Plant response rating, Barley [1, 11] | Plant response rating, Chickweed [3, 10] | Plant response rating, Canarygrass [4, 10] | Plant response rating, Crabgrass, Large [7, 17]
95: Plant response rating, Windgrass [2, 11] | Plant response rating, Chickweed [3, 12] | Plant response rating, Canarygrass [4, 12] | Plant response rating, Surinam Grass [5, 16] | Plant response rating, Corn (corn (Zea mays); [14]) | Soybean plant response rating (soybean (Glycine max); [20])
50: Plant response rating, Barley [1, 9] | Plant response rating, Windgrass [2, 9]
60: Plant response rating, Corn (corn (Zea mays); [19])
85: Plant response rating, Corn (corn (Zea mays); [13]) | Corn plant response rating (corn (Zea mays); [20]) | Plant response rating, Soybean (soybean (Glycine max); [13])
